The source of these data is patent publication US5180665A, “Method for quantitatively assaying the presence of diarrhetic shellfish poisoning toxins in marine samples” (priority 1990, dated 1993).

Where two headings read alike, the source gives them in different places. Numbered stars: 1 amine (or outer) side, 2 acyl side, 3 side chain; on linkers, the order of the positions; unused ones are H or OH. Bridge positions count the residues as written; N and C are the ends. Square brackets hold non-standard residues; d marks the D form. Peptide text beside a SMILES is read from it. Adda = CO[C@@H](Cc1ccccc1)[C@@H](C)/C=C(C)/C=C/[C@H](N[*:1])[C@H](C)C(=O)[*:2]; dAsp(3S-Me) = C[C@H](C(=O)[*:3])[C@@H](N[*:1])C(=O)[*:2]; d(γGlu) = O=C(O)[C@@H](CCC(=O)[*:2])N[*:1]; NMeDha = C=C(NC)C(=O)O

Data set [1] has as its target protein phosphatase-1 (PP1) catalytic subunit. As to the kind of experiment: Standard phosphorylase a phosphatase assay, inhibition of PP1 catalytic subunit. It is filed as biochemical, rabbit. The conditions noted are these: for inhibition of PP1: result in words.
For data set [2], the target named is T1, protein phosphatase-2A (PP2A) catalytic subunit (Oryctolagus cuniculus, UniProt P67777).
T1 construct: Homogeneous PP-1 and -2A catalytic subunits were purified from rabbit skeletal muscle; from tissue; host or cells: rabbit skeletal muscle
T1 sequence (P67777 whole entry): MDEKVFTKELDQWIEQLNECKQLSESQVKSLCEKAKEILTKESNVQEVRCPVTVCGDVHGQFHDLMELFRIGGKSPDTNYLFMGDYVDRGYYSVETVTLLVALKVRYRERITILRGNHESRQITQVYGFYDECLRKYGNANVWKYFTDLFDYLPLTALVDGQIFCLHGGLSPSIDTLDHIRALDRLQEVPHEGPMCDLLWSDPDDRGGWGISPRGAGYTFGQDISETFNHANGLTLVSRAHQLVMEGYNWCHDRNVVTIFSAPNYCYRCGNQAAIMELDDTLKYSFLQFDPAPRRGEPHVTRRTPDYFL
As to the kind of experiment: Standard phosphorylase a phosphatase assay, inhibition of PP2A catalytic subunit. It is filed as biochemical, rabbit. The conditions noted are these: for inhibition of PP2A: result in words.

The test system of a further data set is PP1/PP2A. As to the kind of experiment: LC-linked protein phosphatase bioassay, cross-reactivity. The conditions noted are these: result in words. The data set is classed as biochemical, rabbit.
Data set [3] has as its system protein phosphatase-1 (PP1). The conditions noted are these: literature, result in words; cited from earlier work.
Data set [4] has as its system protein phosphatase-2A (PP2A). The following applies: literature, result in words; cited from earlier work.
For a further data set, the system named is mouse skin. The following applies: cited from earlier work.

On to `C=C1C(=O)N[C@H](C)C(=O)N[C@@H](CC(C)C)C(=O)N[C@@H](C(=O)O)[C@H](C)C(=O)N[C@@H](CCCNC(=N)N)C(=O)N[C@@H](/C=C/C(C)=C/[C@H](C)[C@H](Cc2ccccc2)OC)[C@H](C)C(=O)N[C@@H](C(=O)O)CCC(=O)N1C` [Microcystin-LR] (R[Adda][d(γGlu)][NMeDha][dA]L[dAsp(3S-Me)]-OH; lactam N-7), for which the IC50 (usually the midpoint of a concentration-inhibition curve) in data set [1] (pH 7) turned out to be 0.1 nM; in data set [2] (pH 7, read-out: IC50 for PP2A inhibition), 0.1 nM.

With `C/C(=C/C=C/[C@@H](C)C(=O)O)[C@H]1CN[C@H](C(=O)O)[C@H]1CC(=O)O` [domoic acid], the “cross-reactivity in the LC-linked protein phosphatase bioassay” value in the data set with PP1/PP2A is on record as “does not cross-react”.

As for `CO[C@@H]1[C@@H](OC)[C@H](C)[C@@](O)(CC(=O)O)O[C@H]1[C@H](C)[C@H]1O[C@@]2(CC[C@@](C)([C@H]3CC[C@@](C)([C@@H]4O[C@@H]([C@H]5O[C@](C)(O)[C@H](C)C[C@@H]5C)C[C@@H]4O[C@@H]4C[C@H](OC)[C@@H](OC)[C@H](C)O4)O3)O2)C[C@H](O)[C@H]1C` [maduramycin], the “inhibition of PP1” value in data set [1] was “not inhibited”. For the same compound, the “inhibition of PP2A” value in data set [2] is “not inhibited”.

As for `CC[C@@]1([C@@H]2O[C@@H]([C@H]3O[C@@](O)(CO)[C@H](C)C[C@@H]3C)C[C@@H]2C)CC[C@H]([C@]2(C)CC[C@]3(C[C@H](O)[C@@H](C)[C@@H]([C@@H](C)[C@@H](OC)[C@H](C)C(=O)O)O3)O2)O1` [monensin], the “inhibition of PP1” value in data set [1] is “not inhibited”. For the same compound, the “inhibition of PP2A” value in data set [2] is recorded as “not inhibited”.

For `CO[C@@H]1C[C@@H](C[C@H]2CC[C@H](C)[C@H]([C@@H](C)C(=O)O)O2)O[C@]2(O[C@](C)([C@H]3CC[C@@](C)([C@@H]4O[C@@H]([C@H]5O[C@@](O)(CO)[C@H](C)C[C@@H]5C)C[C@@H]4C)O3)C[C@H]2C)[C@@H]1C` [nigericin], the “inhibition of PP1” value in data set [1] is “not inhibited”. In data set [2], the “inhibition of PP2A” value is on record as “not inhibited”.

`C=C1[C@@H](O)[C@@H]2O[C@]3(CC[C@H](/C=C/[C@@H](C)[C@@H]4CC(C)=C[C@@]5(O[C@H](C[C@@](C)(O)C(=O)O)CC[C@H]5O)O4)O3)CC[C@H]2O[C@@H]1[C@@H](O)C[C@H](C)[C@H]1O[C@@]2(CCCCO2)CC[C@H]1C` [okadaic acid]: the IC50 in data set [1] (standard phosphorylase a phosphatase assay, 1 mU/ml PP1, pH 7.0, 30° C.) was found to be 19 nM; in data set [2] (PP2A diluted to 0.03 mU/ml in the standard assay, read-out: IC50 for okadaic acid with diluted PP2A), 0.04 nM. Besides, the “fold stronger inhibition of PP2A than PP1” value in data set [2] (PP2A relative to PP1, standard assay) is 90(+10) fold. In data set [3], the “inhibitor of protein phosphatase-1” value is “potent and specific inhibitor”. Besides, the “inhibitor of protein phosphatase-2A” value in data set [4] was “potent and specific inhibitor”. Moreover, the tumour promotion result in the data set on mouse skin (result in words) is “powerful tumour promoters”. Moreover, in the data set with mouse skin (two-stage carcinogenesis, mouse skin, versus phorbol esters), the “tumour promoting potency compared with phorbol esters” value is on record as “comparable potency”.

As for `CC[C@@H](C(=O)[C@@H](C)[C@@H](O)[C@H](C)[C@@H]1O[C@@H]([C@@H](CC)C(=O)O)CC[C@@H]1C)[C@H]1O[C@]2(C=C[C@@H](O)[C@]3(CC[C@@](C)([C@H]4CC[C@](O)(CC)[C@H](C)O4)O3)O2)[C@H](C)C[C@@H]1C` [salinomycin], the “inhibition of PP1” value in data set [1] was “not inhibited”. Moreover, in data set [2], the “inhibition of PP2A” value is listed as “not inhibited”.

Turning to dinophysistoxin-1, the “fold stronger inhibition of PP2A than PP1” value in data set [2] (rabbit) is 90(+10) fold. In the data set with mouse skin (mouse, in vivo), the “tumour promoting potency compared with phorbol esters” value is listed as “comparable potency” and the tumour promotion entry was “powerful tumour promoters”.
